Reference: PubChem BioAssay (NCI)
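Five compound concentrations were applied to cells in 96-well plates for 48 hours; endpoints were derived by simple linear interpolation of the resulting dose-response curve. TGI: concentration producing complete growth inhibition.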

What was measured:
Experiment in all cases: NCI-60 cell line screen, 48 h
[1] = test system: SK-MEL-2 melanoma
[2] = test system: SW-620 colon
[3] = test system: MDA-MB-435
[4] = test system: HCC-2998 colon
[5] = test system: SF-539 CNS
[6] = test system: MCF7 breast
[7] = test system: SN12C renal
[8] = test system: NCI-H23 lung
[9] = test system: MOLT-4 leukemia
[10] = test system: HCT-116 colon
[11] = test system: OVCAR-5 ovarian
[12] = test system: CCRF-CEM leukemia
[13] = test system: K-562 leukemia
[14] = test system: SK-OV-3 ovarian
[15] = test system: HOP-92 NSCLC
[16] = test system: CAKI-1 renal
[17] = test system: NCI-H226 lung
[18] = test system: NCI-H522 lung
[19] = test system: RXF 393 renal
[20] = test system: UO-31 renal
[21] = test system: COLO 205 colon
[22] = test system: U251 CNS
[23] = test system: SNB-19 CNS
[24] = test system: SK-MEL-28 melanoma
[25] = test system: MDA-N
[26] = test system: HOP-62 NSCLC
[27] = test system: 786-0 renal
[28] = test system: DU-145 prostate
[29] = test system: OVCAR-4 ovarian
[30] = test system: SK-MEL-5 melanoma
[31] = test system: HT29 colon
[32] = test system: ACHN renal
[33] = test system: EKVX NSCLC
[34] = test system: OVCAR-8 ovarian
[35] = test system: HL-60(TB) leukemia
[36] = test system: HS 578T breast
[37] = test system: MDA-MB-231 breast
[38] = test system: A549 NSCLC
[39] = test system: SR leukemia
[40] = test system: NCI-H460 lung
[41] = test system: UACC-257 melanoma
[42] = test system: PC-3 prostate
[43] = test system: RPMI-8226 leukemia
[44] = test system: HCT-15 colon
[45] = test system: SF-268 CNS
[46] = test system: SF-295 CNS
[47] = test system: SNB-75 CNS
[48] = test system: LOX IMVI melanoma
[49] = test system: M14 melanoma
[50] = test system: KM12 colon
[51] = test system: BT-549 breast
[52] = test system: OVCAR-3 ovarian
[53] = test system: T-47D breast
[54] = test system: MALME-3M melanoma
[55] = test system: TK-10 renal
[56] = test system: NCI/ADR-RES ovarian
[57] = test system: UACC-62 melanoma
[58] = test system: IGROV1 ovarian
[59] = test system: A498 renal

Measured: TGI

Cn1ccnc1Sc1ccc(/C=N/NC(=O)c2ccccc2[N+](=O)[O-])cc1[N+](=O)[O-]
95.6 µM: [4]
97.6 µM: [37]
> 100 µM: all other assays above
